Square brackets hold non-standard residues; d marks the D form. Peptide text beside a SMILES is read from it. * marks the point of attachment. ξ: configuration not given here. Cbz = O=C(OCc1ccccc1)*; Boc = CC(C)(C)OC(=O)*; ξV = CC(C)C(N)C(=O)O; OBn = c1ccc(CO*)cc1; Bn = c1ccc(C*)cc1

The term IC50 denotes the concentration that gives 50% inhibition. A low value points to greater potency in that assay.

The target in the assay is Beta-secretase 1 (Homo sapiens, UniProt P56817).
Sequence of Beta-secretase 1 (P56817 whole entry): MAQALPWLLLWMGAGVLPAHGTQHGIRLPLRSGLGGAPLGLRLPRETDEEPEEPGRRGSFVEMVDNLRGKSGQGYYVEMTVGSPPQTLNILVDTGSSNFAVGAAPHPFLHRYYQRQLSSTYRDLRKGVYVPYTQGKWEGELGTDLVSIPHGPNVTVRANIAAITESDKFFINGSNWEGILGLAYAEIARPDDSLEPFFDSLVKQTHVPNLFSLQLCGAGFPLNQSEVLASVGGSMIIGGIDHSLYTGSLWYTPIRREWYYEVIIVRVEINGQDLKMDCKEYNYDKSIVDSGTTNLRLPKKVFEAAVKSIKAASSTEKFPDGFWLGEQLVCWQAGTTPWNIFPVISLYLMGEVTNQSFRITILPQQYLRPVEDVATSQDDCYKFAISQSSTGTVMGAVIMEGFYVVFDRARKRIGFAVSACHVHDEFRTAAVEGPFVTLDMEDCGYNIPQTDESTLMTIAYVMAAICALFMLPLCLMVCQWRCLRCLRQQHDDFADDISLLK
Description: Inhibition of BACE1 after 2 hrs by FRET assay
Regarding `COc1cccc(C(=O)OCC(=O)NCc2ccc(Cl)cc2Cl)c1O`, it took 500 µM to reach half-maximal inhibition (IC50). The compound `CC1CCCCN1CCNC(=O)c1cc(=O)[nH]c2ccc(S(=O)(=O)N3CCCCC3)cc12` (configuration not stated) displayed an IC50 of 100 µM. This IC50 lies about 5-fold lower than the previous one.

`CN(C)c1nc(N/N=C/c2cc(I)cc(I)c2O)nc(N2CCOCC2)n1` showed an IC50 of 100 µM. Turning to `CC(NC(=O)NCCNC(=O)NC(C)C(=O)O)C(=O)O` (configuration not stated), it took 500 µM to reach half-maximal inhibition (IC50).

For the compound `O=C(O)c1cc(-c2ccc(/C=N/Nc3nc(Nc4ccc(F)cc4)nc(N4CCOCC4)n3)o2)ccc1Cl`, the IC50 came out at 7.1 µM. Regarding `NS(=O)(=O)c1ccc(NC(=O)CSc2nnc(-c3ccccc3)c(-c3ccccc3)n2)cc1`, the IC50 is 100 µM. For `CC(C)C(NC(=O)CNC(=O)CNC(=O)OCc1ccccc1)C(=O)O` (stereo not drawn) (Cbz-Gly-Gly-[ξV]-OH), the IC50 was 500 µM. This IC50 lies about 5-fold higher than the previous one. As to `CCCCCCc1nc2ccccc2c(=O)n1NC(O)c1c(O)c2cccc3c2n(c1=O)CCC3` (configuration not stated), the midpoint of inhibition, the IC50, lay at 100 µM.

As for `Clc1ccc(/C=N/Nc2nc(Nc3cccc(Br)c3)nc(N3CCOCC3)n2)cc1`, half-maximal inhibition (IC50) was put at 100 µM.

Regarding `C[C@@H](NC(=O)c1cc(C(=O)N[C@@H](Cc2ccccc2)[C@H](O)CNC2CC2)cc(N(C)S(=O)(=O)N(C)C)c1)c1ccccc1`, the IC50 amounted to 14 µM.

`COc1ccc(OC)c(/N=c2\oc3c(C)ncc(CO)c3cc2C(=O)Nc2ccc(Cl)cc2)c1` returned an IC50 of 100 µM. `O=C(Nc1cc(Br)ccc1N1CCOCC1)c1cc2ccccc2oc1=O`: the IC50 is 10 µM. `COc1ccc(C(=O)Nc2ccccc2C(=O)NC(CCSC)C(=O)NNC(=O)Sc2nc3ccccc3s2)cc1` (configuration not stated) came in with an IC50 of 50 µM. Compound `O=C(NCCc1ccc(Cl)cc1)C1CCC(CNc2nc(=S)[nH]c3ccccc23)CC1` (configuration not stated) yielded a concentration for half-maximal inhibition (IC50) of 100 µM.

With `CCc1cc(=O)oc2c(C)c(OC(=O)NCC(=O)NCC(=O)O)ccc12`, the IC50 was 500 µM.

Take `CCSc1scc(CC)c1C1C(C(=O)Nc2ccc(Br)cn2)=C(C)NC2=C1C(=O)CC(C)(C)C2` (configuration not stated): the IC50 was 100 µM. The value for `Cc1ccc(Nc2nc(N/N=C/c3ccc(Cl)c(Cl)c3)nc(N3CCOCC3)n2)c(Cl)c1` was 100 µM; that for `CCOC(=O)C(Cc1ccc(O)cc1)NS(=O)(=O)c1ccc2c(c1)C(=O)c1ccccc1C2=O` (configuration not stated) was 100 µM; that for `C=CCn1c(SCC(=O)Nc2ccc(S(N)(=O)=O)cc2)nc2sc3c(c2c1=O)CCCC3` was 100 µM.

`O=C(Nc1cc(Br)ccc1N1CCN(Cc2ccccc2)CC1)c1cccc2ccccc12` displayed an IC50 of 5 µM. The value for `C[C@@H](NC(=O)c1cc(C(=O)N[C@@H](Cc2ccccc2)[C@H](O)CN)cc(N(C)S(C)(=O)=O)c1)c1ccc(F)cc1` was 23 µM; that for `CCN1CCCC1CNC(=O)c1ccc2c(=O)n(Cc3ccc(Cl)cc3)c(=S)[nH]c2c1` (configuration not stated) was 100 µM; that for `O=C(O)c1cc(-c2ccc(/C=N/Nc3nc(Nc4ccccc4)nc(N4CCCCC4)n3)o2)ccc1Cl` was 152 µM. `Cc1cccc(N(C)S(=O)(=O)c2ccc3ncc(C(=O)NCCN4CCOCC4)c(O)c3c2)c1` yielded an IC50 of 100 µM. Turning to `Cc1ccc(Nc2nc(CN3CCOCC3)nc(N/N=C/c3cc(Br)cc(Br)c3O)n2)cc1`, the IC50 is 48.1 µM. This IC50 lies about 2.1-fold lower than the previous one. As to `Cc1ccc(NC(=O)c2cc(NC(=O)CCCC(=O)O)ccc2N2CCOCC2)cc1`, 500 µM corresponded to half-maximal inhibition (IC50). In turn, `CC1CCN(S(=O)(=O)c2ccc3[nH]c(=O)cc(C(=O)NCCCN4CCCC4)c3c2)CC1` registered an IC50 of 100 µM. The same measure for `CCCCc1ccc(Nc2nc3ccccc3nc2NS(=O)(=O)c2ccc(Cl)cc2)cc1`: 100 µM; for `COc1cc(/C=N/Nc2nc(Nc3ccccc3)nc(N3CCOCC3)n2)cc(Br)c1O`: 100 µM; for `CCc1ccc(N2C(=O)Nc3ccc(Br)cc3C2(O)C(=O)NCc2ccccc2)cc1` (configuration not stated): 100 µM.

In turn, `O=C1CSC(c2ccc(Cl)cc2)N1Nc1nc(Nc2ccccc2)nc(N2CCCCC2)n1` (configuration not stated) showed an IC50 of 100 µM. `C[C@H](NC(=O)c1cc(OCC(=O)NCCCCCN)cc(OS(=O)(=O)Cc2ccccc2)c1)c1ccccc1` had an IC50 of 100 µM. With `C[C@@H](NC(=O)c1cc(C(=O)N[C@@H](Cc2ccccc2)[C@H](O)CNC2CC2)cc(N(C)S(C)(=O)=O)c1)c1ccc(F)cc1`, the IC50 was found to be 10 µM. The compound `Cc1ccc(C)c(Nc2nc(N/N=C/c3cc(Br)cc(Br)c3O)nc(N3CCOCC3)n2)c1` had an IC50 of 100 µM. In turn, `O=C(NCc1ccccc1Cl)c1ccc(N2CC3CC(C2)c2cccc(=O)n2C3)c(NS(=O)(=O)c2ccc3c(c2)OCCO3)c1` (configuration not stated) showed an IC50 of 100 µM.

Turning to `Oc1c(I)cc(I)cc1/C=N/Nc1nc(NCc2ccccc2)nc(N2CCOCC2)n1`, the IC50 turned out to be 100 µM. `O=C(O)CC(NNc1nc(NCCO)nc(N2CCOCC2)n1)c1ccccc1` (configuration not stated) returned an IC50 of 500 µM.

`CCSc1sc(CC)cc1C1C(C(=O)Nc2ccc(C)cn2)=C(C)NC2=C1C(=O)CC(C)(C)C2` (configuration not stated) gave an IC50 of 100 µM. As for `Cc1c(CC(=O)N[C@H](CCCNC(N)=O)C(=O)O)c(=O)oc2c(C)c(O)ccc12`, 500 µM corresponded to half-maximal inhibition (IC50). Against the preceding compound, the IC50 is about 5-fold higher.

Turning to `CC(C)(C)OC(=O)NC(CC(=O)OCc1ccccc1)C(=O)NC(COCc1ccccc1)C(=O)NCC(=O)OCc1ccccc1` (configuration not stated) (Boc-Asp(OBn)-Ser(Bn)-Gly-OBn; configuration not given here), the IC50 stood at 100 µM. Against the preceding compound, the IC50 is about 5-fold lower.

Regarding `Oc1ccc(-c2ccccc2)cc1CN1CCN(Cc2cc(-c3ccccc3)ccc2O)CC1`, half-maximal inhibition (IC50) required 100 µM. The compound `COc1cc(/C=N/Nc2nc(Nc3ccc(F)cc3)nc(N3CCCCC3)n2)ccc1OCC(=O)O` returned an IC50 of 100 µM. Take `NS(=O)(=O)c1ccc(CCNC(=O)CCc2nc3sc4c(c3c(=O)[nH]2)CCCC4)cc1`: half-maximal inhibition (IC50) required 100 µM. As for `Cc1cc(C)nc(NS(=O)(=O)c2ccc(Nc3nc(-c4ccc(C(C)C)cc4)cs3)cc2)n1`, the IC50 stood at 1000 µM. `CC1CCCCN1CCNC(=O)c1cc(=O)[nH]c2ccc(S(=O)(=O)N3CCOCC3)cc12` (configuration not stated) showed an IC50 of 100 µM. On to `Cc1cc(Br)c(Nc2nc(CN3CCOCC3)nc(N/N=C/c3cc(I)cc(C)c3O)n2)cc1Cl`, for which the midpoint of inhibition, the IC50, lay at 100 µM. The value for `O=C(O)c1cc(-c2ccc(/C=N/Nc3nc(Nc4ccc(F)cc4)nc(N4CCCCC4)n3)o2)ccc1O` was 27.9 µM; that for `FC(F)(Cl)Oc1ccc(Nc2nc(NCc3ccccc3)nc(N3CCCCC3)n2)cc1` was 100 µM. For `CCc1ccc(N2C(=O)Nc3ccc(Br)cc3C2(O)C(=O)NCC(C)CN2CCC(C)CC2)cc1` (configuration not stated), the IC50 came to 100 µM.

The compound `CCc1ccc(Sc2c(N)c3c(c(N)c2Sc2ccc(CC)cc2)C(=O)c2ccccc2C3=O)cc1` yielded an IC50 of 253 µM. In turn, `O=C(O)CCCNC(=O)CCCCC(=O)C(c1ccccc1)c1ccccc1` came in with an IC50 of 500 µM.

`O=C(Nc1ccc(Cl)cc1C(=O)c1ccccc1)c1ccc(Nc2nc(-c3ccccc3)c3cc(Br)ccc3n2)cc1` yielded an IC50 of 100 µM. In turn, `O=C(NCCc1ccccc1)c1c[nH]c2ccc(S(=O)(=O)N3CCc4ccccc4C3)cc2c1=O` came in with a half-maximal inhibitory concentration (IC50) of 100 µM. Turning to `COc1cccc2cc(C(=O)Nc3cc(Br)ccc3N3CCOCC3)c(=O)oc12`, half-maximal inhibition (IC50) required 10 µM. Consider `CCOc1cc(/C=N\NC(=O)COc2ccc(C)cc2)cc(I)c1O`, for which the IC50 came out at 100 µM. `CCOc1nc(NCCN2CCOCC2)nc(NNc2ccc(I)cc2C)n1`: it took 11.9 µM to reach half-maximal inhibition (IC50). This IC50 is about 8.4-fold lower than that of the compound before. The compound `Cc1ccc(Nc2nc(N/N=C/c3cccc(Br)c3)nc(N3CCOCC3)n2)cc1` had an IC50 of 100 µM. This IC50 lies about 8.4-fold higher than the previous one.

`O=C(NCc1ccccc1)c1c[nH]c2ccc(S(=O)(=O)NC3CCCCNC3=O)cc2c1=O` (configuration not stated) showed an IC50 of 100 µM. The value for `Cc1ccc(C)c(Nc2nc(N/N=C/c3cc(Br)c(O)c(Br)c3C)nc(N3CCOCC3)n2)c1` was 81.8 µM; that for `O=C(NCc1ccccc1)c1ccc(N2CC3CC(C2)c2cccc(=O)n2C3)c(NS(=O)(=O)c2ccc3c(c2)OCCO3)c1` (configuration not stated) was 100 µM. As to `O=C(Nc1ccccc1C(=O)NCC(O)CNC(=O)c1ccccc1NC(=O)c1ccccc1)c1ccccc1`, the 50% inhibitory concentration (IC50) was found to be 100 µM. On to `CCCc1cc(=O)oc2cc(OCC(=O)NCC(=O)NCC(=O)O)ccc12`, for which half-maximal inhibition (IC50) was put at 500 µM. `O=C(Nc1ccc(Cl)c(C(F)(F)F)c1)C(NS(=O)(=O)c1cccs1)c1ccccc1` (configuration not stated) showed an IC50 of 100 µM. The same measure for `O=C(NCc1ccc(Cl)cc1)c1ccc(N2CC3CC(C2)c2cccc(=O)n2C3)c(NS(=O)(=O)c2ccc3c(c2)OCCO3)c1` (configuration not stated): 100 µM; for `COc1cccc2cc(C(=O)Nc3cc(Br)ccc3N3CCN(Cc4ccccc4)CC3)c(=O)oc12`: 5 µM; for `COc1ccc(-n2nc(C(=O)NCC(=O)Nc3cccc(C)n3)c3ccccc3c2=O)cc1Cl`: 100 µM.

Compound `CC(=O)Nc1cc(C(=O)NCc2cc(F)cc(Cl)c2)ccc1Sc1ccc(Cl)cc1` gave an IC50 of 100 µM. `CSc1ccc(C(O)C(CO)NC(=O)c2cc3c(n(-c4ccc(Cl)cc4)c2=O)CC(C)(C)CC3=O)cc1` (configuration not stated) returned a half-inhibitory concentration (IC50) of 100 µM. The same measure for `C[C@@H](NC(=O)c1cc(C(=O)N[C@@H](Cc2ccccc2)[C@H](O)CNC(C)(C)C)cc(N(C)S(C)(=O)=O)c1)c1ccc(F)cc1`: 15 µM. As to `CN(C)CCNC(=O)c1c[nH]c2ccc(S(=O)(=O)N3CCc4ccccc4C3)cc2c1=O`, the IC50 was 100 µM.

In turn, `COc1cc(/C=N\NC(=O)c2ccccc2OCCOc2ccccc2)cc(Br)c1O` registered an IC50 of 500 µM.

Compound `CCOc1cc(C2C(C(=O)OCc3ccccc3)=C(C)NC3=C2C(=O)CC(C)(C)C3)cc(Br)c1O` (configuration not stated) displayed an IC50 of 100 µM. In the case of `CCN1CCN(CCNC(=O)c2ccc3c(=O)n(Cc4ccc(Cl)cc4)c(=S)[nH]c3c2)CC1`, the IC50 worked out at 100 µM.

In turn, `COc1nc(NCCN2CCOCC2)nc(Nc2ccc(I)cc2)n1` gave an IC50 of 100 µM. The compound `O=C(CN1CCN(Cc2ccccc2)CC1)N/N=C\c1cc(I)cc(I)c1O` yielded an IC50 of 100 µM. `O=C(Nc1cc(Br)ccc1N1CCOCC1)c1cccc2ccccc12` had an IC50 of 20 µM. Compound `Clc1ccc(/C=N/Nc2nc(NCc3ccc(Cl)cc3)nc(N3CCOCC3)n2)cc1` returned an IC50 of 100 µM.

`O=C(CC1Sc2ccccc2NC1=O)Nc1ccccc1SC(F)(F)C(F)(F)C(F)(F)F` (configuration not stated) displayed an IC50 of 100 µM. In turn, `CC(C)(C)OC(=O)N1CCN(c2ccc(Br)cc2NC(=O)c2cccc3ccccc23)CC1` gave an IC50 of 1 µM. Take `CCCc1cc(=O)oc2c(C)c(OCC(=O)NCC(=O)NCC(=O)O)ccc12`: half-maximal inhibition (IC50) was put at 100 µM. Regarding `Clc1nc(NCCN2CCOCC2)nc(NCc2ccc(I)cc2)n1`, the IC50 was 100 µM.

`Cc1cc(O)c2c(C)c(CC(=O)N[C@H](CCCNC(N)=O)C(=O)O)c(=O)oc2c1` came in with an IC50 of 500 µM. This IC50 lies about 5-fold higher than the previous one.
